Data reported in patent publication US10138244B2, “Triazolopyrazinone derivative useful as a human PDE1 inhibitor” (Eli Lilly and Company, priority 2016, dated 2018).

Key:
Assay type in all cases: biochemical
human PDE4D = biological target: T1, human PDE4D (Homo sapiens, UniProt Q08499); assay: PDE enzyme assay using [3H]cAMP as substrate (SPA), PDE4D; details: human PDE4D 0.021 nM, [3H]cAMP 47 nM
T1 construct: encoding full-length human PDE4D (NP_006194.2); HIS (C); made in house; host or cells: Sf9 (baculovirus, pFastBac1)
From the text: (§1) The nucleotide sequences encoding full-length human PDE1A (NP_001003683.1), PDE1C (NP_005011.1), PDE5A (NP_001074.2), PDE7B (NP_061818.1) and PDE9A (NP_002597.1) are inserted into pFastBac1 (Invitrogen) vector with an N-terminal HIS tag. The nucleotide sequences encoding full-length human PDE4D (NP_006194.2) and catalytic domain (residue 641-1141) of PDE3A (NP_000912.3) are inserted into pFastBac1 (Invitrogen) vector with a C-terminal HIS tag. The nucleotide sequences encoding full-length human PDE8A (NP_002596.1) and PDE11A (AAI12394.1) are inserted into pFastBac1 (Invitrogen) vector with an N-terminal Flag tag. The nucleotide sequences encoding full-length human PDE10A (AAD32595.1) are inserted into pFastBac1 (Invitrogen) vector with a C-terminal Flag-His tag. […]
(§2) All 3′, 5′ cyclic nucleotide phosphodiesterase (PDE) enzyme activities are measured with a radiometric enzyme assay based on SPA detection system (scintillation proximity assay). […] Samples are read 12 hours later in a MICROBETA™ TRILUX® Counter. […] IC50 values are calculated by plotting the normalized data vs. log [compound] and fitting the data using a four parameter logistic equation.
(§3) The following phosphodiesterase activities are measured using [^3H]cAMP as reaction substrate: human PDE3A (catalytic domain), human PDE4D, human PDE7B and human PDE8A. […]

human PDE11A = biological target: T2, human PDE11A (Homo sapiens, UniProt Q9HCR9); assay: PDE enzyme assay using [3H]cGMP as substrate (SPA), PDE11A; details: human PDE11A 0.03 nM, [3H]cGMP 80 nM
T2 construct: full-length human PDE8A (NP_002596.1) and PDE11A (AAI12394.1); Flag (N); made in house; host or cells: Sf9 (baculovirus, pFastBac1)
From the text: as §1, §2
(§4) The following phosphodiesterase activities are measured using [^3H]cGMP as reaction substrate: human PDE2A, human PDE5A, human PDE6A/6B, human PDE9A, human PDE10A and human PDE11A. […]

human PDE2A = biological target: T3, human PDE2A (Homo sapiens, UniProt O00408); assay: PDE enzyme assay using [3H]cGMP as substrate (SPA), PDE2A; details: human PDE2A 0.2 nM, [3H]cGMP 80 nM
T3 construct: full-length human PDE1B (NP_000915.1) and PDE2A (NP_002590.1); HIS (C); made in house; host or cells: Sf9 (pIEX4)
From the text: as §1, §2, §4

human PDE6A/6B = biological target: T4, human PDE6A/6B (Homo sapiens, UniProt P16499+P35913); assay: PDE enzyme assay using [3H]cGMP as substrate (SPA), PDE6A/6B dimer; details: human PDE6AB dimer 5 nM, [3H]cGMP 80 nM; read-out: IC50 (nM) PDE 6AB
T4 construct: encoding full-length human PDE6A (NP_000431.2) and PDE6B (AAH00249.1); HIS (N); Flag (N); made in house; host or cells: Sf9 (baculovirus, pFastBacDual)
From the text: as §1, §2, §4

[1] = biological target: T5, human PDE3A (catalytic domain) (Homo sapiens, UniProt Q14432); assay: PDE enzyme assay using [3H]cAMP as substrate (SPA), PDE3A; details: human PDE3A catalytic domain 0.008 nM, [3H]cAMP 47 nM
T5 construct: catalytic domain (residue 641-1141) of PDE3A (NP_000912.3); HIS (C); made in house; host or cells: Sf9 (baculovirus, pFastBac1)
From the text: as §1, §2, §3

human PDE7B = biological target: T6, human PDE7B (Homo sapiens, UniProt Q9NP56); assay: PDE enzyme assay using [3H]cAMP as substrate (SPA), PDE7B; details: human PDE7B 0.5 nM, [3H]cAMP 47 nM
T6 construct: full-length human PDE1A (NP_001003683.1), PDE1C (NP_005011.1), PDE5A (NP_001074.2), PDE7B (NP_061818.1); HIS (N); made in house; host or cells: Sf9 (baculovirus, pFastBac1)
From the text: as §1, §2, §3

human PDE10A = biological target: T7, human PDE10A (Homo sapiens, UniProt Q9Y233); assay: PDE enzyme assay using [3H]cGMP as substrate (SPA), PDE10A; details: human PDE10A 0.03 nM, [3H]cGMP 80 nM
T7 construct: encoding full-length human PDE10A (AAD32595.1); Flag-His (C); made in house; host or cells: Sf9 (baculovirus, pFastBac1)
From the text: as §1, §2, §4

human PDE1B = biological target: T8, human PDE1B (Homo sapiens, UniProt Q01064); assay: Ca2+-calmodulin dependent PDE enzyme assay (SPA), PDE1B; details: human PDE1B 0.074 nM, [3H]cAMP 47 nM, calmodulin 6 U/ml; read-out: IC50 (nM) PDE 1B
T8 construct: encoding full-length human PDE1B (NP_000915.1); HIS (C); made in house; host or cells: Sf9 (pIEX4)
From the text: (§5) The nucleotide sequences encoding full-length human PDE1A (NP_001003683.1), PDE1C (NP_005011.1), PDE5A (NP_001074.2), PDE7B (NP_061818.1) and PDE9A (NP_002597.1) are inserted into pFastBac1 (Invitrogen) vector with an N-terminal HIS tag. The nucleotide sequences encoding full-length human PDE4D (NP_006194.2) and catalytic domain (residue 641-1141) of PDE3A (NP_000912.3) are inserted into pFastBac1 (Invitrogen) vector with a C-terminal HIS tag. The nucleotide sequences encoding full-length human PDE8A (NP_002596.1) and PDE11A (AAI12394.1) are inserted into pFastBac1 (Invitrogen) vector with an N-terminal Flag tag. The nucleotide sequences encoding full-length human PDE10A (AAD32595.1) are inserted into pFastBac1 (Invitrogen) vector with a C-terminal Flag-His tag. The nucleotide sequences encoding full-length human PDE6A (NP_000431.2) and PDE6B (AAH00249.1) are inserted into pFastBacDual (Invitrogen) vector with an N-terminal HIS tag and N-terminal Flag tag, respectively, for production of PDE6A/6B dimer. […]
as §2, with “equation. […]” for “equation.”

human PDE9A = biological target: T9, human PDE9A (Homo sapiens, UniProt O76083); assay: PDE enzyme assay using [3H]cGMP as substrate (SPA), PDE9A; details: human PDE9A 1 nM, [3H]cGMP 20 nM
T9 construct: full-length human PDE1A (NP_001003683.1), PDE1C (NP_005011.1), PDE5A (NP_001074.2), PDE7B (NP_061818.1) and PDE9A (NP_002597.1); HIS (N); made in house; host or cells: Sf9 (baculovirus, pFastBac1)
From the text: as §1, §2, §4

human PDE1C = biological target: T10, human PDE1C (Homo sapiens, UniProt Q14123); assay: Ca2+-calmodulin dependent PDE enzyme assay (SPA), PDE1C; details: human PDE1C 0.0012 nM, [3H]cAMP 47 nM, calmodulin 6 U/ml; read-out: IC50 (nM) PDE 1C
T10 construct: full-length human PDE1A (NP_001003683.1), PDE1C (NP_005011.1); HIS (N); made in house; host or cells: Sf9 (baculovirus, pFastBac1)
From the text: as §5
as §2, with “equation. […]” for “equation.”

human PDE1A = biological target: T11, human PDE1A (Homo sapiens, UniProt P54750); assay: Ca2+-calmodulin dependent PDE enzyme assay (SPA), PDE1A; details: human PDE1A 0.25 nM, [3H]cAMP 47 nM, calmodulin 6 U/ml; read-out: IC50 (nM) PDE 1A
T11 construct: encoding full-length human PDE1A (NP_001003683.1); HIS (N); made in house; host or cells: Sf9 (baculovirus, pFastBac1)
From the text: as §5
as §2, with “equation. […]” for “equation.”

human PDE8A = biological target: T12, human PDE8A (Homo sapiens, UniProt O60658); assay: PDE enzyme assay using [3H]cAMP as substrate (SPA), PDE8A; details: human PDE8A 0.06 nM, [3H]cAMP 47 nM
T12 construct: encoding full-length human PDE8A (NP_002596.1); Flag (N); made in house; host or cells: Sf9 (baculovirus, pFastBac1)
From the text: as §1, §2, §3

human PDE5A = biological target: T13, human PDE5A (Homo sapiens, UniProt O76074); assay: PDE enzyme assay using [3H]cGMP as substrate (SPA), PDE5A; details: human PDE5A 0.002 nM, [3H]cGMP 80 nM
T13 construct: full-length human PDE1A (NP_001003683.1), PDE1C (NP_005011.1), PDE5A (NP_001074.2); HIS (N); made in house; host or cells: Sf9 (baculovirus, pFastBac1)
From the text: as §1, §2, §4

T3 sequence (O00408 whole entry): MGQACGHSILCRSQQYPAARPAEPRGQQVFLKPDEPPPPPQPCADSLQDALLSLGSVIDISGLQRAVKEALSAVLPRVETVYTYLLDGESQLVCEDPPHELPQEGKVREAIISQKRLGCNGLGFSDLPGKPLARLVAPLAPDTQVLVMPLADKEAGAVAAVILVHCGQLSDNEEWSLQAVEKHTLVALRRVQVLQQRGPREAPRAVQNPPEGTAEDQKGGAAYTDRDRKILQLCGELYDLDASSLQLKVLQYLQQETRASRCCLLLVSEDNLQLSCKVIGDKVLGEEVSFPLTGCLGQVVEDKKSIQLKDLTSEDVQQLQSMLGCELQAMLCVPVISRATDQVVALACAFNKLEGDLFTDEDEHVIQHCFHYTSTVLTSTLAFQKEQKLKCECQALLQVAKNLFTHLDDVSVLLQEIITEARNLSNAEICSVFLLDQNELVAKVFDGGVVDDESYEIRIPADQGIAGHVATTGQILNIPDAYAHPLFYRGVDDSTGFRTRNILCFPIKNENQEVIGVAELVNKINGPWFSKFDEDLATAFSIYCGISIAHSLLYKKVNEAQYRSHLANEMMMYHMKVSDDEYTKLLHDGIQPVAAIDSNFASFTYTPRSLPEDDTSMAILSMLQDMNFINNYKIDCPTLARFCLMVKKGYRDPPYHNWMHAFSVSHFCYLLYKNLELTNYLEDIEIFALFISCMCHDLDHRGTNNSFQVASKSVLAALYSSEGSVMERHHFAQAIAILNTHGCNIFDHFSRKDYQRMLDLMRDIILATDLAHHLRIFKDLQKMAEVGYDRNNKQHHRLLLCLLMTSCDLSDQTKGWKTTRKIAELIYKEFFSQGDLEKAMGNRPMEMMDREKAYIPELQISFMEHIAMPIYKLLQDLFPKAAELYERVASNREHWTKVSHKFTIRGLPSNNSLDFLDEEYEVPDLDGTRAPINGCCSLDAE
T7 sequence (Q9Y233 1-779 isoform Q9Y233-1): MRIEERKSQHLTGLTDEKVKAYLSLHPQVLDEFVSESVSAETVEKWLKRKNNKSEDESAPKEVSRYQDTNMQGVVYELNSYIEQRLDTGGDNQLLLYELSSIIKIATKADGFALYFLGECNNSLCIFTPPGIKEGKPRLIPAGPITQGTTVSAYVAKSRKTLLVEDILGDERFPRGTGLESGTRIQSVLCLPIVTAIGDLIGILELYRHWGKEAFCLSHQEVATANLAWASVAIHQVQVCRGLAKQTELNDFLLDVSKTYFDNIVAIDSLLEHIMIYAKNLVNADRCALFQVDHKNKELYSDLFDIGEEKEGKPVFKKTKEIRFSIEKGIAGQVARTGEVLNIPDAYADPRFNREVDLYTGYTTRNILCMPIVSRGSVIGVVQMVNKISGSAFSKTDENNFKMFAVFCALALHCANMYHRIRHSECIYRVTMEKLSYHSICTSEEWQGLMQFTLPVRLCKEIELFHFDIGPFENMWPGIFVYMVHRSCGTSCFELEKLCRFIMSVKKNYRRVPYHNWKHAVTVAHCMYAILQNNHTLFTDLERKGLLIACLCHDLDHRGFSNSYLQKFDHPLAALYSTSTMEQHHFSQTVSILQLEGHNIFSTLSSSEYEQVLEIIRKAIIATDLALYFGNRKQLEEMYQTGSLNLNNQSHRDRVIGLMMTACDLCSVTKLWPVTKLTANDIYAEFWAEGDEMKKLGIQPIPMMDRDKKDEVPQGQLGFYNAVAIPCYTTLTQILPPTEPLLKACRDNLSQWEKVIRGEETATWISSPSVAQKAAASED
T1 sequence (Q08499 1-673 isoform Q08499-2): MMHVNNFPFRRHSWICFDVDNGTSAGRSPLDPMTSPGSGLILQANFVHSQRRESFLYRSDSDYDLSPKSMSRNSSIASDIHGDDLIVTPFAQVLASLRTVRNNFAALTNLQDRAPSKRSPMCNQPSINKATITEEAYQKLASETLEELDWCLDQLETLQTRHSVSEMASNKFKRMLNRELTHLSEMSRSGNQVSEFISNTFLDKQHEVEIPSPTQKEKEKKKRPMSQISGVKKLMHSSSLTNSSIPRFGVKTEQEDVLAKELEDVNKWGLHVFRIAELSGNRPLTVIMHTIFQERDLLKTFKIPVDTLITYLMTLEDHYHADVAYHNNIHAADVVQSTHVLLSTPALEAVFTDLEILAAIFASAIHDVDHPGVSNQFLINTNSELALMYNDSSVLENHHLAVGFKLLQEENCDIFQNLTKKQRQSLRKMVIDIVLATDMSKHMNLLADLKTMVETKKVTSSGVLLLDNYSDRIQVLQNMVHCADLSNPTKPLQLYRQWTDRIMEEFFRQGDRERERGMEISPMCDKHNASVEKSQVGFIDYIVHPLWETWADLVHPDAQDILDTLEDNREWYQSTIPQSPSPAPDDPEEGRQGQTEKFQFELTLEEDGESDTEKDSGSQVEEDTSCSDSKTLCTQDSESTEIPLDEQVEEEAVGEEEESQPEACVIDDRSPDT
T12 sequence (O60658 whole entry): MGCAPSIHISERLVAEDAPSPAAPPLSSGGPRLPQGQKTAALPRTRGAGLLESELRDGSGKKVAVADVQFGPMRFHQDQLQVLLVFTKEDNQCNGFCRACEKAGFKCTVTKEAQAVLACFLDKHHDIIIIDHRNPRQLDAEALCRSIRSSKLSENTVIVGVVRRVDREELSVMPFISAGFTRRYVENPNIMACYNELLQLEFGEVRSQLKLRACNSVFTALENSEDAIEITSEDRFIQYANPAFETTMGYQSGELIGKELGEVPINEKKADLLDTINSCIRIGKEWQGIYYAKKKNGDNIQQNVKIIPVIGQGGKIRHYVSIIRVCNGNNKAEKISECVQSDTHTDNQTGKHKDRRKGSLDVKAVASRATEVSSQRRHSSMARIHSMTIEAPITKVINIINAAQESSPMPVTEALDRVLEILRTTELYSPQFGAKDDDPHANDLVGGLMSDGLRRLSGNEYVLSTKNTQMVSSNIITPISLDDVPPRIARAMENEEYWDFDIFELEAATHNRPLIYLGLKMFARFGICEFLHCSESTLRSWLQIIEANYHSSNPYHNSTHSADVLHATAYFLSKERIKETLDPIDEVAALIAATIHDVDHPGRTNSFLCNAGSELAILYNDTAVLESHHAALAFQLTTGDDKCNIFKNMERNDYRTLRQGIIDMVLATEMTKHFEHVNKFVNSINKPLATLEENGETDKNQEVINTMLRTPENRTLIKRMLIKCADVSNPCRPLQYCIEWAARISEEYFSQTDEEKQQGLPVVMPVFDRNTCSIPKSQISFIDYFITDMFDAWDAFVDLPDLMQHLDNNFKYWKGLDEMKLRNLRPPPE
T4 sequence (P16499 whole entry): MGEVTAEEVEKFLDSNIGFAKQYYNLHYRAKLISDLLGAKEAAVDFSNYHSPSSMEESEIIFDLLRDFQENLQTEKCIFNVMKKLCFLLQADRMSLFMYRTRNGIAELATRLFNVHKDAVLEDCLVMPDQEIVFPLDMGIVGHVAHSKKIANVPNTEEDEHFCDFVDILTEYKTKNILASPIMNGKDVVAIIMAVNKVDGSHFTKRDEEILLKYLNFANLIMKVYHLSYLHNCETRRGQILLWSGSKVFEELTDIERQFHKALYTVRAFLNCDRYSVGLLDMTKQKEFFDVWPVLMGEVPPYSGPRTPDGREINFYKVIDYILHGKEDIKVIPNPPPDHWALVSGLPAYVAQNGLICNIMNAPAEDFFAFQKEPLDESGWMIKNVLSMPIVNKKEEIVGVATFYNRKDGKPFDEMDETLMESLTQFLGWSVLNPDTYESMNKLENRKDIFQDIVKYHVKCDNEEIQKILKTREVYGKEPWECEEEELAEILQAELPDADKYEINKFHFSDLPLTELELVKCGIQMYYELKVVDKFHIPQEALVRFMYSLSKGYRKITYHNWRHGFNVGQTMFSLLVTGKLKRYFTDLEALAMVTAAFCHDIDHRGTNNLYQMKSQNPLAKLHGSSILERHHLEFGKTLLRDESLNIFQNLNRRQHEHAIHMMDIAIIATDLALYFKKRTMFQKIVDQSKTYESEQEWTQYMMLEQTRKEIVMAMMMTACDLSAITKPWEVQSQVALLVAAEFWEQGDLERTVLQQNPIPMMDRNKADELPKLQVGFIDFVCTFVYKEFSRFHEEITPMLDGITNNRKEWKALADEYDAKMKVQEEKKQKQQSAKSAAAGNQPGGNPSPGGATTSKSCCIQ
T4 sequence (P35913 1-853 isoform P35913-2): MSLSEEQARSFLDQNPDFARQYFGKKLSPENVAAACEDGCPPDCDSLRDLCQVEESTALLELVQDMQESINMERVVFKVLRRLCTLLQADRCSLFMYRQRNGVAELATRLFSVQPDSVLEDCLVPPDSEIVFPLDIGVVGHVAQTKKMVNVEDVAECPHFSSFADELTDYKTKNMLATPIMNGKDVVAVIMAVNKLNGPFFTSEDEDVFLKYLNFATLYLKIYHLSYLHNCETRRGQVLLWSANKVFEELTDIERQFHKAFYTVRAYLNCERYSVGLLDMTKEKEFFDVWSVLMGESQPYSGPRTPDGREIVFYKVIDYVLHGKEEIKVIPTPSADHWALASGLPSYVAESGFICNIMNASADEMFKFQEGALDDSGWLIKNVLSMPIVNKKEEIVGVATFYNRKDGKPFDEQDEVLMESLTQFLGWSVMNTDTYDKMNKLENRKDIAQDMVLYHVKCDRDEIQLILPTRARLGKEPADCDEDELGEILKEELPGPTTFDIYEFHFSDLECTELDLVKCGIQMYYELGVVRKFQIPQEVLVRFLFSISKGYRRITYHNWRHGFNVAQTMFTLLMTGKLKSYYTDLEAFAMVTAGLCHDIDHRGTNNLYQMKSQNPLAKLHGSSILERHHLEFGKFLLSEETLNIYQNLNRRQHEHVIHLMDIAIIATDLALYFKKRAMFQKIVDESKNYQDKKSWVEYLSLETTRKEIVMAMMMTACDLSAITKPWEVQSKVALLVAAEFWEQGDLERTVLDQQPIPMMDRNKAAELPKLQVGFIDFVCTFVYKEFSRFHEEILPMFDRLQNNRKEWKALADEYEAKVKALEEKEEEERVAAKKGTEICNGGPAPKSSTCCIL

Question: For `CCCCn1c(=O)c2nnc(C3(C)CC3)n2c2ncccc21` [Example 1, 5-butyl-9-(1-methylcyclopropyl)pyrido[3,2-e][1,2,4]triazolo[4,3-a]pyrazin-6(5H)-one], which IC50 (human PDE4D) is on record?
Answer: 11900 ± 1580 nM

Question: What about the IC50 (human PDE11A) of the same molecule?
Answer: 389 ± 179 nM

Question: And the IC50 (human PDE2A)?
Answer: > 10000 nM

Question: And the IC50 (human PDE6A/6B)?
Answer: 2460 ± 247 nM

Question: What about the IC50 [1] of the same molecule?
Answer: > 100000 nM

Question: And the IC50 (human PDE7B)?
Answer: 4170 nM

Question: What about the IC50 (human PDE10A) of the same molecule?
Answer: 9340 nM

Question: What about the IC50 (human PDE1B) of the same molecule?
Answer: 16.3 ± 9.1 nM

Question: What about the IC50 (human PDE9A) of the same molecule?
Answer: > 10000 nM

Question: What about the IC50 (human PDE1C) of the same molecule?
Answer: 2.65 ± 0.9 nM

Question: And the IC50 (human PDE1A)?
Answer: 10.9 ± 2.6 nM

Question: And the IC50 (human PDE8A)?
Answer: > 10000 nM

Question: And the IC50 (human PDE5A)?
Answer: 3130 nM
